The source of these data is patent US10494355B2, “Oxadiazole amine derivative compounds as histone deacetylase 6 inhibitor, and the pharmaceutical composition comprising the same” (Chong Kun Dang Pharmaceutical Corp., priority 2015, dated 2019).

Test [1] deals with T1, human recombinant HDAC6 (Homo sapiens, UniProt Q9UBN7).
T1 construct: purchased Calbiochem 382180
T1 sequence (Q9UBN7 1-1215): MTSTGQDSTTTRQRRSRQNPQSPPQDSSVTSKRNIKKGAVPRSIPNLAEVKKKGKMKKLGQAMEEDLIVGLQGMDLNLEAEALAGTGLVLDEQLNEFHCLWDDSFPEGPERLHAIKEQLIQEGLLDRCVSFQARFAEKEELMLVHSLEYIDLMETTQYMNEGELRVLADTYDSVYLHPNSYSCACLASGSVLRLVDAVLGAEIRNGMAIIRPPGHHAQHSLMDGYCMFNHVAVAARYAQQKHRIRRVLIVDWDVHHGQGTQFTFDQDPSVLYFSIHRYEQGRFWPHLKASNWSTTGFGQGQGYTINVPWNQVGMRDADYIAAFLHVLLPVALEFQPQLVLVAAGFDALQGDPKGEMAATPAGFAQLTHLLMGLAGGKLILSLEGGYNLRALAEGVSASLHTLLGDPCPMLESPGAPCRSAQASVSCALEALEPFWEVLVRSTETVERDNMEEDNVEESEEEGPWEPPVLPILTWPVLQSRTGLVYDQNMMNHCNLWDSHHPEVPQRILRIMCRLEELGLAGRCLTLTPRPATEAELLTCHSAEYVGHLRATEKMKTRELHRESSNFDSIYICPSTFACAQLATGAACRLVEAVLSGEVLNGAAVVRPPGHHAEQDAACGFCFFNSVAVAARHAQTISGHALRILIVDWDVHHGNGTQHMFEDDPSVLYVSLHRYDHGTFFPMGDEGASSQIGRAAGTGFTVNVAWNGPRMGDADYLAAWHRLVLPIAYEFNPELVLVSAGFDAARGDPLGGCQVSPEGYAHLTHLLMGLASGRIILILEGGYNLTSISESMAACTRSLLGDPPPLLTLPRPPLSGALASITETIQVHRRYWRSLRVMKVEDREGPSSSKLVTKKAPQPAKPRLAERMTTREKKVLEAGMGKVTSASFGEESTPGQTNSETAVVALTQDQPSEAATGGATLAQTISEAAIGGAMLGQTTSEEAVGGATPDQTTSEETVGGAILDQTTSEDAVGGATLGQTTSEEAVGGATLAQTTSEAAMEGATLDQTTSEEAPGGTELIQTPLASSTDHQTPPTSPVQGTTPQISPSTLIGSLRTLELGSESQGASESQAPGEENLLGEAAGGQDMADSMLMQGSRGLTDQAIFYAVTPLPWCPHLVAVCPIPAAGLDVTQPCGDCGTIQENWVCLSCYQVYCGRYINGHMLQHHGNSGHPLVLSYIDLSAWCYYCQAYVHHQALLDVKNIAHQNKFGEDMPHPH
As to the kind of experiment: HDAC6 enzyme activity inhibition assay (HDAC Fluorimetric Drug Discovery Kit). The format is biochemical. Particulars: 30° C. 60 minutes. The method, then: (§1) In order to examine the HDAC6 selectivity of the compounds of formula I of the present invention by HDAC1 and HDAC6 enzymatic activity inhibition assays, an experiment was performed using a conventional substance as a control.
(§2) HDAC enzyme activity was measured using a HDAC Fluorimetric Drug Discovery Kit (BML-AK511, 516, Enzo Life Science). For the HDAC1 enzyme activity test, human recombinant HDAC1 (BML-SE456) was used as an enzyme source, and Fluor de Lys®-“SIRT1 (BNL-KI177) was used as a substrate. A 5-fold dilution of the compound was seeded into a 96-well plate, and then 0.3 μg of the enzyme and 10 μM of the substrate were added to each well of the plate and allowed to react at 30° C. for 60 minutes. Then, Fluor de Lys®-Developer II (BML-KI176) was added thereto and allowed to react for 30 minutes, after which the fluorescence value (Ex 360, Em 460) was measured using a multi-plate reader (Flexstation 3, Molecular Device). The HDAC6 enzyme was tested using human recombinant HDAC6 (382180) (Calbiochem) according to the same protocol as the HDAC1 enzyme activity test method. Based on the resulting values, each IC50 value was calculated using GraphPad Prism4.0 program.

For test [2], the target named is T2, human recombinant HDAC1 (Homo sapiens, UniProt Q13547).
T2 construct: purchased Enzo Life Science BML-SE456
T2 sequence (Q13547 whole entry): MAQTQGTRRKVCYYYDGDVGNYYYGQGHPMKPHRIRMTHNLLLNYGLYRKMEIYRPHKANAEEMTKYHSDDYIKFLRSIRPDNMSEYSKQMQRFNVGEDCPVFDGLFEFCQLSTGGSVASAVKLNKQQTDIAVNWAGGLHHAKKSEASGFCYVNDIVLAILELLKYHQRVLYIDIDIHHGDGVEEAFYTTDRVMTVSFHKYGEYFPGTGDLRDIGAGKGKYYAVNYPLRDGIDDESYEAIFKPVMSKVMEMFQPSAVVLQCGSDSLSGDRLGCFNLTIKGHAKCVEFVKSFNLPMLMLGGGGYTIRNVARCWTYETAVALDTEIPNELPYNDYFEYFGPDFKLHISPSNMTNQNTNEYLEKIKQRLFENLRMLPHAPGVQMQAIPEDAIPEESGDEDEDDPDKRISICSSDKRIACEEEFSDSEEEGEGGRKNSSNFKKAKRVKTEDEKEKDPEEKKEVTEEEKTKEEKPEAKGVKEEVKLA
As to the kind of experiment: HDAC1 enzyme activity inhibition assay (HDAC Fluorimetric Drug Discovery Kit). Type of test: biochemical. Particulars: human recombinant HDAC1, 10 μM substrate, 30° C. 60 minutes. As to the method: as §1, §2

`FC(F)(F)c1nnc(-c2cnc(NC3(c4ccccn4)CCC3)nc2)o1` [Compound 1641, N-(1-(pyridin-2-yl)cyclobutyl)-5-(5-(trifluoromethyl)-1,3,4-oxadiazol-2-yl)pyrimidin-2-amine]: the IC50 (in general, the point on the concentration scale where inhibition reaches its midpoint) was 58 nM in test [1] and above 10000 nM in test [2].
Taken in the same sequence, the figures for `FC(F)c1nnc(-c2cnc(NC3(c4cccc(C(F)(F)F)c4)CCC3)nc2)o1` [Compound 1642, 5-(5-(difluoromethyl)-1,3,4-oxadiazol-2-yl)-N-(1-(3-(trifluoromethyl)phenyl)cyclobutyl)pyrimidin-2-amine] were 57 nM and above 10000 nM.
Turning to `FC(F)(F)c1cccc(C2(Nc3ncc(-c4nnc(C(F)(F)F)o4)cn3)CCC2)c1` [Compound 1670, 5-(5-(trifluoromethyl)-1,3,4-oxadiazol-2-yl)-N-(1-(3-(trifluoromethyl)phenyl)cyclobutyl)pyrimidin-2-amine], the IC50 was 596 nM in test [1] and above 10000 nM in test [2].
As for `Cc1ccccc1C1(Nc2ncc(-c3nnc(C(F)F)o3)cn2)CCC1` [Compound 1671, 5-(5-(difluoromethyl)-1,3,4-oxadiazol-2-yl)-N-(1-(o-tolyl)cyclobutyl)pyrimidin-2-amine], the IC50 in test [1] is 44 nM; in test [2] it was above 10000 nM.
On to `Cc1ccccc1C1(Nc2ncc(-c3nnc(C(F)(F)F)o3)cn2)CCC1` [Compound 1672, N-(1-(o-tolyl)cyclobutyl)-5-(5-(trifluoromethyl)-1,3,4-oxadiazol-2-yl)pyrimidin-2-amine], for which the IC50 is 234 nM in test [1] and above 10000 nM in test [2].
For `Cc1cccc(C2(Nc3ncc(-c4nnc(C(F)F)o4)cn3)CCC2)c1` [Compound 1673, 5-(5-(difluoromethyl)-1,3,4-oxadiazol-2-yl)-N-(1-(m-tolyl)cyclobutyl)pyrimidin-2-amine], in that order: 25 nM and above 10000 nM.
For `Cc1cccc(C2(Nc3ncc(-c4nnc(C(F)(F)F)o4)cn3)CCC2)c1` [Compound 1674, N-(1-(m-tolyl)cyclobutyl)-5-(5-(trifluoromethyl)-1,3,4-oxadiazol-2-yl)pyrimidin-2-amine], in that order: 132 nM and above 10000 nM.
Take `Cc1ccc(C2(Nc3ncc(-c4nnc(C(F)F)o4)cn3)CCC2)cc1` [Compound 1675, 5-(5-(difluoromethyl)-1,3,4-oxadiazol-2-yl)-N-(1-(p-tolyl)cyclobutyl)pyrimidin-2-amine]: the values for the IC50 in test [1] and in test [2] were 39 nM and above 10000 nM, respectively.
In the case of `Cc1ccc(C2(Nc3ncc(-c4nnc(C(F)(F)F)o4)cn3)CCC2)cc1` [Compound 1676, N-(1-(p-tolyl)cyclobutyl)-5-(5-(trifluoromethyl)-1,3,4-oxadiazol-2-yl)pyrimidin-2-amine], the IC50 was 242 nM in test [1] and above 10000 nM in test [2].
For `O=C(OCc1ccccc1)N1CCC(Nc2ncc(-c3nnc(C(F)F)o3)cn2)(c2ccccc2)CC1` [Compound 1677, Benzyl 4-((5-(5-(difluoromethyl)-1,3,4-oxadiazol-2-yl)pyrimidin-2-yl)amino)-4-phenylpiperidine-1-carboxylate], in that order: 267 nM and above 10000 nM.
As to `FC(F)c1nnc(-c2cnc(NC3(c4ccccc4)CCNCC3)nc2)o1` [Compound 1678, 5-(5-(difluoromethyl)-1,3,4-oxadiazol-2-yl)-N-(4-phenylpiperidin-4-yl)pyrimidin-2-amine], the results for the IC50 in test [1] and in test [2] were 225 nM and above 10000 nM, respectively.
With `Fc1ccccc1C1(Nc2ncc(-c3nnc(C(F)F)o3)cn2)CC1` [Compound 1683, 5-(5-(difluoromethyl)-1,3,4-oxadiazol-2-yl)-N-(1-(2-fluorophenyl)cyclopropyl)pyrimidin-2-amine], the results for the IC50 in test [1] and in test [2] were 21 nM and above 10000 nM, respectively.
On to `Fc1ccc(C2(Nc3ncc(-c4nnc(C(F)F)o4)cn3)CC2)cc1` [Compound 1711, 5-(5-(difluoromethyl)-1,3,4-oxadiazol-2-yl)-N-(1-(4-fluorophenyl)cyclopropyl)pyrimidin-2-amine], for which the IC50 in test [1] was 26 nM; in test [2], above 10000 nM.
